Source: US7091158B2, “Substituted thienyl(amino)sulphonylureas” (Bayer Aktiengesellschaft, priority 1999, dated 2006)

Assays:
Soya = test: Pre-emergence test/greenhouse; assay type: in vivo; conditions: 4 g of ai/ha, after three weeks, vs untreated control
Protocol: (§1) To produce a suitable preparation of active compound, 1 part by weight of active compound is mixed with the stated amount of solvent, the stated amount of emulsifier is added and the concentrate is diluted with water to the desired concentration.
(§2) Seeds of the test plants are sown in normal soil. After about 24 hours, the soil is sprayed with the preparation of active compound such that the particular amount of active compound desired is applied per unit area. The concentration of the spray liquor is chosen so that the particular amount of active compound desired is applied in 1000 litres of water per hectare.
(§3) After three weeks, the degree of damage to the plants is rated in % damage in comparison to the development of the untreated control.
(§4) The figures denote: • 0%=no effect (like untreated control) • 100%=total destruction

Viola [1] = test: Pre-emergence test/greenhouse; assay type: in vivo; conditions: after three weeks, vs untreated control
Protocol: as §1, §2, §3, §4

Veronica [2] = test: Pre-emergence test/greenhouse; assay type: in vivo; conditions: 4 g of ai/ha, after three weeks, vs untreated control
Protocol: as §1, §2, §3, §4

Matricaria [3] = test: Pre-emergence test/greenhouse; assay type: in vivo; conditions: after three weeks, vs untreated control
Protocol: as §1, §2, §3, §4

Stellaria [4] = test: Pre-emergence test/greenhouse; assay type: in vivo; conditions: after three weeks, vs untreated control
Protocol: as §1, §2, §3, §4

weeds [5] = test: Pre-emergence test, activity against weeds; assay type: in vivo
Protocol: as §1, §2, §3, §4

Alopecurus [6] = test: Post-emergence test/greenhouse; assay type: in vivo; conditions: after three weeks, vs untreated control
Protocol: (§5) To produce a suitable preparation of active compound, one part by weight of active compound is mixed with the stated amount of solvent, the stated amount of emulsifier is added and the concentrate is diluted with water to the desired concentration.
(§6) Test plants which have a height of 5–15 cm are sprayed with the preparation of active compound such that the particular amounts of active compound desired are applied per unit area. The concentration of the spray liquor is chosen so that the particular amounts of active compound desired are applied in 1000 l of water/ha.
as §3, §4

Viola [7] = test: Post-emergence test/greenhouse; assay type: in vivo; conditions: after three weeks, vs untreated control
Protocol: as §5, §6, §3, §4

Lolium = test: Post-emergence test/greenhouse; assay type: in vivo; conditions: 15 g of ai/ha, after three weeks, vs untreated control
Protocol: as §5, §6, §3, §4

Veronica [8] = test: Post-emergence test/greenhouse; assay type: in vivo; conditions: 15 g of ai/ha, after three weeks, vs untreated control
Protocol: as §5, §6, §3, §4

Abutilon [9] = test: Post-emergence test/greenhouse; assay type: in vivo; conditions: after three weeks, vs untreated control
Protocol: as §5, §6, §3, §4

Stellaria [10] = test: Post-emergence test/greenhouse; assay type: in vivo; conditions: after three weeks, vs untreated control
Protocol: as §5, §6, §3, §4

Echinochloa = test: Post-emergence test/greenhouse; assay type: in vivo; conditions: 15 g of ai/ha, after three weeks, vs untreated control
Protocol: as §5, §6, §3, §4

weeds [11] = test: Post-emergence test, activity against weeds; assay type: in vivo
Protocol: as §5, §6, §3, §4

Maize = test: Pre-emergence test/greenhouse; assay type: in vivo; conditions: after three weeks, vs untreated control
Protocol: as §1, §2, §3, §4

Sinapis = test: Pre-emergence test/greenhouse; assay type: in vivo; conditions: 250 g of ai/ha, after three weeks, vs untreated control
Protocol: as §1, §2, §3, §4

Amaranthus [12] = test: Pre-emergence test/greenhouse; assay type: in vivo; conditions: after three weeks, vs untreated control
Protocol: as §1, §2, §3, §4

Abutilon [13] = test: Pre-emergence test/greenhouse; assay type: in vivo; conditions: 250 g of ai/ha, after three weeks, vs untreated control
Protocol: as §1, §2, §3, §4

Cyperus = test: Pre-emergence test/greenhouse; assay type: in vivo; conditions: after three weeks, vs untreated control
Protocol: as §1, §2, §3, §4

Wheat = test: Post-emergence test/greenhouse; assay type: in vivo; conditions: 125 g of ai/ha, after three weeks, vs untreated control
Protocol: as §5, §6, §3, §4

Xanthium = test: Post-emergence test/greenhouse; assay type: in vivo; conditions: Table B3, post-emergence, 125 g of ai/ha, after three weeks, vs untreated control
Protocol: as §5, §6, §3, §4

Amaranthus [14] = test: Post-emergence test/greenhouse; assay type: in vivo; conditions: after three weeks, vs untreated control
Protocol: as §5, §6, §3, §4

Matricaria [15] = test: Post-emergence test/greenhouse; assay type: in vivo; conditions: 125 g of ai/ha, after three weeks, vs untreated control
Protocol: as §5, §6, §3, §4

Alopecurus [16] = test: Pre-emergence test/greenhouse; assay type: in vivo; conditions: after three weeks, vs untreated control
Protocol: as §1, §2, §3, §4

Chenopodium [17] = test: Pre-emergence test/greenhouse; assay type: in vivo; conditions: 125 g of ai/ha, after three weeks, vs untreated control
Protocol: as §1, §2, §3, §4

Setaria = test: Post-emergence test/greenhouse; assay type: in vivo; conditions: Table B4, post-emergence, 125 g of ai/ha, after three weeks, vs untreated control
Protocol: as §5, §6, §3, §4

Chenopodium [18] = test: Post-emergence test/greenhouse; assay type: in vivo; conditions: Table B4, post-emergence, 125 g of ai/ha, after three weeks, vs untreated control
Protocol: as §5, §6, §3, §4

Ipomoea = test: Post-emergence test/greenhouse; assay type: in vivo; conditions: Table B4, post-emergence, 125 g of ai/ha, after three weeks, vs untreated control
Protocol: as §5, §6, §3, §4

Cotton = test: Pre-emergence test/greenhouse; assay type: in vivo; conditions: 15 g of ai/ha, after three weeks, vs untreated control
Protocol: as §1, §2, §3, §4

Barley = test: Post-emergence test/greenhouse; assay type: in vivo; conditions: 4 g of ai/ha, after three weeks, vs untreated control
Protocol: as §5, §6, §3, §4

[19] = Table A6, pre-emergence, 250 g of ai/ha
[20] = Table B3, post-emergence, 125 g of ai/ha
[21] = Table A4, pre-emergence, 250 g of ai/ha
[22] = Table A5, pre-emergence, 250 g of ai/ha

COC(=O)c1csc(C)c1S(=O)(=O)NC(=O)Nc1nc(C)nc(OC)n1 [Example 1, N-(4-methoxy-6-methyl-1,3,5-triazin-2-yl)-N′-(4-methoxycarbonyl-2-methyl-thien-3-yl-sulphonyl)-urea]
degree of damage to the plants, Soya (Soya): 10%
degree of damage to the plants, Viola (Viola [1]; 4 g of ai/ha): 100%
degree of damage to the plants, Veronica (Veronica [2]): 95%
degree of damage to the plants, Matricaria (Matricaria [3]; 4 g of ai/ha): 95%
degree of damage to the plants, Stellaria (Stellaria [4]; 4 g of ai/ha): 95%
activity against weeds (weeds [5]): very strong activity
melting point: 195 °C
degree of damage to the plants, Alopecurus (Alopecurus [6]; 15 g of ai/ha): 100%
degree of damage to the plants, Viola (Viola [7]; post-emergence, 15 g of ai/ha): 100%
degree of damage to the plants, Lolium (Lolium): 100%
degree of damage to the plants, Veronica (Veronica [8]): 100%
degree of damage to the plants, Abutilon (Abutilon [9]; 15 g of ai/ha): 100%
degree of damage to the plants, Stellaria (Stellaria [10]; 15 g of ai/ha): 100%
degree of damage to the plants, Echinochloa (Echinochloa): 100%
activity against weeds (weeds [11]): very strong activity

COC(=O)c1csc(C)c1NS(=O)(=O)NC(=O)Nc1nc(OC)cc(OC)n1 [Example 2, N-(4,6-dimethoxy-pyrimidin-2-yl)-N′-(4-methoxycarbonyl-2-methyl-thien-3-yl-amino-sulphonyl)-urea]
degree of damage to the plants, Maize (Maize; [19]): 20%
degree of damage to the plants, Sinapis (Sinapis; Table A6, pre-emergence): 95%
degree of damage to the plants, Amaranthus (Amaranthus [12]; [19]): 95%
degree of damage to the plants, Abutilon (Abutilon [13]; Table A6, pre-emergence): 90%
degree of damage to the plants, Cyperus (Cyperus; [19]): 95%
activity against weeds (weeds [5]): very strong activity
melting point: 174 °C
degree of damage to the plants, Wheat (Wheat; Table B3, post-emergence): 0%
degree of damage to the plants, Xanthium (Xanthium): 95%
degree of damage to the plants, Viola (Viola [7]; [20]): 100%
degree of damage to the plants, Amaranthus (Amaranthus [14]; [20]): 100%
degree of damage to the plants, Matricaria (Matricaria [15]; Table B3, post-emergence): 100%
activity against weeds (weeds [11]): very strong activity

CCCc1scc(C(=O)OCC)c1NS(=O)(=O)NC(=O)Nc1nc(OC)cc(OC)n1 [Example 3]
degree of damage to the plants, Sinapis (Sinapis; Table A4, pre-emergence): 90%
degree of damage to the plants, Alopecurus (Alopecurus [16]; [21]): 70%
degree of damage to the plants, Amaranthus (Amaranthus [12]; [21]): 90%
degree of damage to the plants, Abutilon (Abutilon [13]; Table A4, pre-emergence): 80%
activity against weeds (weeds [5]): very strong activity

CCOC(=O)c1csc(C(C)C)c1NS(=O)(=O)NC(=O)Nc1nc(OC)cc(OC)n1 [Example 4]
degree of damage to the plants, Sinapis (Sinapis; Table A5, pre-emergence): 90%
degree of damage to the plants, Alopecurus (Alopecurus [16]; [22]): 100%
degree of damage to the plants, Amaranthus (Amaranthus [12]; [22]): 90%
degree of damage to the plants, Abutilon (Abutilon [13]; Table A5, pre-emergence): 95%
degree of damage to the plants, Cyperus (Cyperus; [22]): 90%
activity against weeds (weeds [5]): very strong activity

CCc1scc(C(=O)OC)c1NS(=O)(=O)NC(=O)Nc1nc(OC)cc(OC)n1 [Example 5]
degree of damage to the plants, Maize (Maize; pre-emergence, 125 g of ai/ha): 20%
degree of damage to the plants, Viola (Viola [1]; 125 g of ai/ha): 95%
degree of damage to the plants, Matricaria (Matricaria [3]; 125 g of ai/ha): 100%
degree of damage to the plants, Chenopodium (Chenopodium [17]): 95%
degree of damage to the plants, Cyperus (Cyperus; pre-emergence, 125 g of ai/ha): 95%
activity against weeds (weeds [5]): very strong activity
degree of damage to the plants, Wheat (Wheat; Table B4, post-emergence): 20%
degree of damage to the plants, Setaria (Setaria): 90%
degree of damage to the plants, Matricaria (Matricaria [15]; Table B4, post-emergence): 100%
degree of damage to the plants, Chenopodium (Chenopodium [18]): 100%
degree of damage to the plants, Ipomoea (Ipomoea): 100%
activity against weeds (weeds [11]): very strong activity

COC(=O)c1csc(C)c1S(=O)(=O)NC(=O)Nc1nc(OC)cc(OC)n1 [Example 6]
degree of damage to the plants, Cotton (Cotton): 0%
degree of damage to the plants, Alopecurus (Alopecurus [16]; pre-emergence, 15 g of ai/ha): 80%
degree of damage to the plants, Viola (Viola [1]; 15 g of ai/ha): 100%
degree of damage to the plants, Amaranthus (Amaranthus [12]; pre-emergence, 15 g of ai/ha): 90%
degree of damage to the plants, Stellaria (Stellaria [4]; 15 g of ai/ha): 90%
activity against weeds (weeds [5]): very strong activity
degree of damage to the plants, Barley (Barley): 20%
degree of damage to the plants, Alopecurus (Alopecurus [6]; 4 g of ai/ha): 90%
degree of damage to the plants, Amaranthus (Amaranthus [14]; post-emergence, 4 g of ai/ha): 100%
degree of damage to the plants, Abutilon (Abutilon [9]; 4 g of ai/ha): 100%
degree of damage to the plants, Stellaria (Stellaria [10]; 4 g of ai/ha): 95%
activity against weeds (weeds [11]): very strong activity
